Measured values taken from PMC7367283, “A PIP2 substitute mediates voltage sensor-pore coupling in KCNQ activation” (Communications Biology, 2020).

Target: NaV1.5 (Homo sapiens, UniProt Q14524)
Experiment: Cut-open oocyte recording of NaV1.5
Type: cell-based
Conditions: 10 µM CP1
From the text: Since CP1 has a similar effect to PIP2 in mediating VSD-pore coupling in KCNQ channels, we tested if CP1 has effects on other ion channels that are also sensitive to PIP2 or are voltage activated and share general structural features of the VSD and the pore with KCNQ. […] On the other hand, NaV1.5 and KV4.2 are voltage-gated ion channels.
Fig. 6 Effects of CP1 on other ion channels expressed in Xenopus oocytes. a Currents of Kir1.1, CaV1.2, NaV1.5, hERG, and KV4.2 before and after application of 10 µM CP1, respectively. The voltages for holding, test, and returning pulses were Kir1.1, 0 mV, −100 to +60 mV, 0; CaV1.2, −100 mV, −100 to +60, −100 mV; NaV1.5, −100, −120 to +40 mV, −120 mV; hERG, −80 mV, −90 to +60 mV, −60 mV; KV4.2, −80 mV, −100 mV to +80 mV, −40 mV; HCN4, −30 mV, −30 to −140 mV, −120 mV. b Current–voltage relations of Kir1.1 channel in the absence or presence of 10 µM CP1 (n = 7). c–g G–V relations of indicated channels with and without 10 µM CP1. The ΔV1/2 of G–V relations (mV) are CaV1.2, 3.38 ± 0.71 mV (c); NaV1.5, −2.26 ± 0.95 mV (d); hERG, 6.85 ± 1.81 mV (e); KV 4.2, −2.26 ± 2.88 mV (f); HCN4, 17.13 ± 1.59 mV (g).
Complementary DNA (cDNA) encoding human KCNQ1 (UniProtKB/Swiss‐Prot under accession no. P51787), KCNQ2 (O43526), KCNQ3 (O43525), KCNE1 (P15382), Kir1.1 (P48048), hERG (Q12809), KV4.2 (Q63881), NaV1.5 (Q14524), NaV β1 (Q07699), CaV1.2 (Q13936), CaV β1a (Q02641), CaV α2/δ1 (P54289), and HCN4 (Q9Y3Q4) were subcloned into oocyte expression vectors, respectively. Site-directed mutations of the KCNQ1 channel were all produced by overlap extension polymerase chain reaction (PCR) with high-fidelity Pfu polymerase (Stratagene, CA). The presence of the desired mutation was verified by sequencing the PCR-amplified regions. All the primer sequences used in this study are available in Supplementary Table 1. The complementary RNA (cRNA) of all these channels and mutations was transcribed in vitro with the T3, T7, or SP6 polymerase mMessage mMachine kit (Invitrogen, Thermo Fisher Scientific, MO).
The use of Xenopus laevis to obtain oocytes was approved by the Washington University Animal Studies Committee (protocol #20190030). Oocytes were manually dispersed and digested with collagenase (0.5 mg/ml, Sigma-Aldrich, Saint Louis, MO) to remove the follicle cell layer. Stage V or VI oocytes were selected and injected with cRNAs (9.2 ng) of channel or mutations. Especially, to characterize IKs, a mix of cRNAs at a molar ratio 4:1 (KCNQ1:KCNE1) was injected. For KCNQ2/KCNQ3, the molar ratio was 1:1 (KCNQ2:KCNQ3). For sodium channels, a 3:1 molar ratio (β1:NaV1.5) and for calcium channels a weight ratio 1:1:1 (β1:α2/δ1:CaV1.2) was injected, respectively. Injected oocytes were incubated in ND96 solution containing (in mM) 96 NaCl, 2 KCl, 1.8 CaCl2, 1 MgCl2, and 5 HEPES, pH 7.6, supplemented with 2.5 mM Na pyruvate and 1% penicillin–streptomycin, at 18 °C for 3–7 days before recording.
NaV1.5 currents were recorded with a cut-open amplifier (CA-1B, Dagan Corporation) coupled with an A/D converter (Digidata 1440, Molecular Devices). The data were acquired using Clampex software (v10, Molecular Devices). The internal solution was composed of (mM) 105 NMG‐Mes, 10 Na‐Mes, 20 HEPES, and 2 EGTA, pH 7.4. The external solution was composed of (mM) 25 NMG‐Mes, 90 Na‐Mes, 20 HEPES, and 2 Ca‐Mes2, pH 7.4. The ionic currents were recorded using the standard I–V protocol. From a holding potential of −120 mV, cells were stepped to a 100-ms prepulse of −120 mV and then stepped to test potentials ranging from −120 to 60 mV with 20-mV increment, […] a 100-ms postpulse of −120 mV.

Sequence of NaV1.5 (Q14524 whole entry): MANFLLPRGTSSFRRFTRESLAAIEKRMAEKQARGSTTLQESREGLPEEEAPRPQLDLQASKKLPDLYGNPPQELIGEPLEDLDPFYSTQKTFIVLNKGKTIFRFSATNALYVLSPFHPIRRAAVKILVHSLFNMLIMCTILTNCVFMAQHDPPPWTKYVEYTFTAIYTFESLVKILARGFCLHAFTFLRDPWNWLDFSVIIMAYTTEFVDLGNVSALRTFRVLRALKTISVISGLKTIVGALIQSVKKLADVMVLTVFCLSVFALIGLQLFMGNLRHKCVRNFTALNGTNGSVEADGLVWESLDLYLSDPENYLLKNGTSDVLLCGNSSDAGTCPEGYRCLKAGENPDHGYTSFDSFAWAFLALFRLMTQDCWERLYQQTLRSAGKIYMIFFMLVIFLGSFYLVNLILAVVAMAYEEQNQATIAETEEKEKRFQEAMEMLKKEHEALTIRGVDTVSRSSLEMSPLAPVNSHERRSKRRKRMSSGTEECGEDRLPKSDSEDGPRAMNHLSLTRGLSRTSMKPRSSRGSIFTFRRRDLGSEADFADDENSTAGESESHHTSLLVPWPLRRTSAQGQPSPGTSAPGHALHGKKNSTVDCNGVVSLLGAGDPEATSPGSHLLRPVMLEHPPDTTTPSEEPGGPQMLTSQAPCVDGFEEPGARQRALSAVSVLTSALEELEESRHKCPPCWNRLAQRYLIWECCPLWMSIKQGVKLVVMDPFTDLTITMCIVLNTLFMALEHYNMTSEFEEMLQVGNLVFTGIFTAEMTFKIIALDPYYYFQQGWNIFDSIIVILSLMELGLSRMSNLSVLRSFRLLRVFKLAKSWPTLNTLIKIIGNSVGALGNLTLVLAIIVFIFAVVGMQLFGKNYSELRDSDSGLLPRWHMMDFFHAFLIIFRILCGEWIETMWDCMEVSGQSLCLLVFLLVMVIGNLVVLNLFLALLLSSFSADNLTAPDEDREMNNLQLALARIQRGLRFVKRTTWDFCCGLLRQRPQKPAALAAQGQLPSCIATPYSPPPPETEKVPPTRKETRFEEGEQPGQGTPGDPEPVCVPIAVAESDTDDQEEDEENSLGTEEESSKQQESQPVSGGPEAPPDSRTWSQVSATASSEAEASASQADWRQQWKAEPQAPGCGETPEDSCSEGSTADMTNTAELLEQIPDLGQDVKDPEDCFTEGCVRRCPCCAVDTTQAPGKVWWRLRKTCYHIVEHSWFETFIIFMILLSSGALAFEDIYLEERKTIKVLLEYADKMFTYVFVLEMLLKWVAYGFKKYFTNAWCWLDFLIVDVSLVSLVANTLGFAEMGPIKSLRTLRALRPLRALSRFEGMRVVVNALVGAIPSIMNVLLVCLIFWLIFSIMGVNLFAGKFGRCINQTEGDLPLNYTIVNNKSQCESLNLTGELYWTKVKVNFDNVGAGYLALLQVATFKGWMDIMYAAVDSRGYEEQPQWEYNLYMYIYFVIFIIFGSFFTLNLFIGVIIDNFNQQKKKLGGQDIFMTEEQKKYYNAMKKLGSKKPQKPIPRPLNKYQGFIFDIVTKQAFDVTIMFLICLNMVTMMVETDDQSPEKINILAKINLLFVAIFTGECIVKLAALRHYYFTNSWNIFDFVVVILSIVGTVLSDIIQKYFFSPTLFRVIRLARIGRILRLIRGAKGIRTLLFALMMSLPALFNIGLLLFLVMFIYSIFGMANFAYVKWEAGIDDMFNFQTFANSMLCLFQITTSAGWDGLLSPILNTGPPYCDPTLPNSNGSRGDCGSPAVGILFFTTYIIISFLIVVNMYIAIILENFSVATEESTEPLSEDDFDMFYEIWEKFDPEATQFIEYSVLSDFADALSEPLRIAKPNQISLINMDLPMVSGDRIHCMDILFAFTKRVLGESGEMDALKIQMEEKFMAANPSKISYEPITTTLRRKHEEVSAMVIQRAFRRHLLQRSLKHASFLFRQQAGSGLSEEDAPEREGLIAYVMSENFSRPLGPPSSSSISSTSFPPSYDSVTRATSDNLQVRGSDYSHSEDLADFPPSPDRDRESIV
Sequence of NaV1.5 (Q07699 19-218 partner): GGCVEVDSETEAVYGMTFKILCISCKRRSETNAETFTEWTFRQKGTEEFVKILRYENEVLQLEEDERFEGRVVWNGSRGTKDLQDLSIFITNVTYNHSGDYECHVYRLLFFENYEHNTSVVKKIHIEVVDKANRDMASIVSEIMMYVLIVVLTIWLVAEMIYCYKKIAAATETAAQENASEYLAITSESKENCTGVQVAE

SMILES: O=S(=O)([O-])Oc1c(-c2sc3c(ccc4cccc(Cl)c43)c2OS(=O)(=O)[O-])[nH]c2ccc(Br)cc12.[Na+].[Na+] [CP1, DISODIUM 5-BROMO-2-[9-CHLORO-3-(SULFONATOOXY) NAPHTHO [1,2-B] THIEN-2-YL]-1H-INDOL-3-YL SULFATE]
- ΔV1/2 of G–V relations: −2.26 ± 0.95 mV
- G/Gmax Mean (Fig. 6d) (voltage 0 mV): 0.9380
- G/Gmax Mean (Fig. 6d) (voltage 20 mV): 1.0000
- G/Gmax Mean (Fig. 6d) (voltage -20 mV): 0.9095
- G/Gmax Mean (Fig. 6d) (voltage -40 mV): 0.8354
- G/Gmax Mean (Fig. 6d) (voltage -60 mV): 0.4098
- G/Gmax Mean (Fig. 6d) (voltage -80 mV): 0.0040
- G/Gmax Mean (Fig. 6d) (voltage -100 mV): 0.0015
- G/Gmax Mean (Fig. 6d) (voltage -120 mV): 0.0016
